Experimental data reported in patent publication US9630922B2, “3-spiro-7-hydroxamic acid tetralins as HDAC inhibitors” (Forma Therapeutics, Inc., priority 2015, dated 2017).
pIC50: −log10 of the molar value.

Target: T1, HDAC6 (Homo sapiens, UniProt Q9UBN7)
T1 construct: Full length human recombinant HDAC6 protein was expressed in baculoviral system; made in house; host or cells: baculoviral system
T1 sequence (Q9UBN7 1-1215): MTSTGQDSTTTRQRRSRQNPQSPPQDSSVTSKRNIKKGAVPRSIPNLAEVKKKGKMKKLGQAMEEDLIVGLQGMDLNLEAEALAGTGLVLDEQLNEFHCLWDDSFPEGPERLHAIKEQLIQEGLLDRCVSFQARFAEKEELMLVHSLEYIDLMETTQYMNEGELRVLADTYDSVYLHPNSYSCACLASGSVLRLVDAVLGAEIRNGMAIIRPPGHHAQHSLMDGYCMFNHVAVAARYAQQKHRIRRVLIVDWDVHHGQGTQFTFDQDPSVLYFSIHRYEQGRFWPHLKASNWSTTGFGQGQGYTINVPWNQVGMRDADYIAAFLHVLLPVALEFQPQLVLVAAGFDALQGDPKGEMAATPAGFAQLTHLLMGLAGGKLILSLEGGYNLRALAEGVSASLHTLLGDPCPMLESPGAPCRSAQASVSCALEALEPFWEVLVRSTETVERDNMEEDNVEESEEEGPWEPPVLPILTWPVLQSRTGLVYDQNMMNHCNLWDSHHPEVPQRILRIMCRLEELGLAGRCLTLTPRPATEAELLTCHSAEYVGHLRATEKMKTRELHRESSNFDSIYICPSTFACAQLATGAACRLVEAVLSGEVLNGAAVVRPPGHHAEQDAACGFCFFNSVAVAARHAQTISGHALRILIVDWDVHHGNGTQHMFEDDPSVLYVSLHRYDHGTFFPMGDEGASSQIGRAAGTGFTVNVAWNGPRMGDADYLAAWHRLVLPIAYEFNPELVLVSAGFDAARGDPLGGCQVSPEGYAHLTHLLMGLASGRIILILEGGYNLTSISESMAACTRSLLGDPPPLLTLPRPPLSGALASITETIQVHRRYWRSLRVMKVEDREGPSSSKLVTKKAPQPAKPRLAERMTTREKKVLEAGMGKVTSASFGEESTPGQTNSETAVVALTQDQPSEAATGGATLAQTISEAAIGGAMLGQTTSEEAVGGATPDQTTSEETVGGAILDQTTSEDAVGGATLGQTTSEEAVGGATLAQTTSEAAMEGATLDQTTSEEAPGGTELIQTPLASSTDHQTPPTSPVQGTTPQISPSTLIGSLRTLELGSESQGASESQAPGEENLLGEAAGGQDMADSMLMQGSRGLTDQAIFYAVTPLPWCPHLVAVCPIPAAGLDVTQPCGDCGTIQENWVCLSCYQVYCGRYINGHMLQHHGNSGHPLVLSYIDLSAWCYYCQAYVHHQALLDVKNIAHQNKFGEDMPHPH
Test: In vitro Histone Deacetylase Assay (enzymatic HDAC6 electrophoretic mobility shift assay)
Type: biochemical
Conditions: full length human recombinant HDAC6, 1 nM enzyme, 2 μM peptide substrate RHKK(Ac)-NH2, 25° C.; read-out: HDAC6 activity range
Procedure: The enzymatic HDAC6 assay was performed using electrophoretic mobility shift assay. Full length human recombinant HDAC6 protein was expressed in baculoviral system and purified by affinity chromatography. The enzymatic reactions were assembled in 384 well plates in a total volume of 25 μL in a reaction buffer composing: 100 mM HEPES, pH7.5, 25 mM KCl, 0.1% bovine serum albumin, 0.01% Triton X-100, 1% DMSO (from compounds) 2 μM of the fluorescently labeled peptide substrate and enzyme. The enzyme was added at a final concentration of 1 nM. The peptide substrate RHKK(Ac)—NH2 was used. The compounds were tested at 12 concentrations spaced by 3× dilution intervals. Negative control samples (0%-inhibition in the absence of inhibitor) and positive control samples (100%-inhibition) were assembled in replicates of four in each assay plate. The reactions were incubated at 25° C. and quenched by the addition of 45 μL of termination buffer (100 mM HEPES, pH 7.5, 0.01% Triton X-100, 0.05% SDS).
The terminated assay plates were analyzed on LabChip® 3000 microfluidic electrophoresis instrument (Perkin Elmer/Caliper Life Sciences). The fluorescence intensity of the electrophoretically separated de-acetylated product and substrate peptide was measured. Activity in each sample was determined as the product to sum ratio (PSR): P/(S+P), where P is the peak height of the product peptide and S is the peak height of the substrate peptide. Percent inhibition (Pinh) is determined using the following equation:
Pinh=(PSR0%−PSRinh)/(PSR0%−PSR100%)*100, where PSRinh is the product sum ratio in the presence of inhibitor, PSR0% is the average product sum ration in the absence of inhibitor and PSR100% is the average product sum ratio in 100%-inhibition control samples. The IC50 values of inhibitors were determined by fitting the %-inhibition curves with 4 parameter dose-response model using XLfit 4 software.
As set forth in Table-31, below, IC50 values are defined as follows: IC50≦0.1 μM (+++); IC50>0.1 μM and ≦0.5 μM (++); IC50>0.5 μM (+).

Compound | pIC50
O=C(NO)c1ccc2c(c1)CC[C@]1(CCN(Cc3ccccc3F)C1=O)C2 [Compound I-57, (R)-1′-(2-fluorobenzyl)-N-hydroxy-2′-oxo-3,4-dihydro-1H-spiro[naphthalene-2,3′-pyrrolidine]-6-carboxamide] | ≥ 7.00
Cc1ccccc1CN1CC2(CCc3cc(C(=O)NO)ccc3C2)CC1=O (single isomer, unassigned) [Compound I-225] | ≥ 7.00
O=C(NO)c1ccc2c(c1)CC[C@@]1(CCN(Cc3ccccc3OC(F)F)C1=O)C2 [Compound I-87, (S)-1′-(2-(difluoromethoxy)benzyl)-N-hydroxy-2′-oxo-3,4-dihydro-1H-spiro[naphthalene-2,3′-pyrrolidine]-6-carboxamide] | ≥ 7.00
CC(C)CN1CC2(CCc3cc(C(=O)NO)ccc3C2)CC1=O (single isomer, unassigned) [Compound I-212] | ≥ 7.00
O=C(NO)c1ccc2c(c1)CCC1(CCN(C(=O)Nc3ccccc3)CC1)O2 [II-7, N6-hydroxy-N1′-phenylspiro[chromane-2,4′-piperidine]-1′,6-dicarboxamide] | 6.30 to 7.00
O=C(NO)c1ccc2c(c1)CC[C@]1(CCN(c3ccccc3)C1=O)C2 [Compound I-26, (R)-N-hydroxy-2′-oxo-1′-phenyl-3,4-dihydro-1H-spiro[naphthalene-2,3′-pyrrolidine]-6-carboxamide] | ≥ 7.00
O=C(NO)c1ccc2c(c1)CCC1(CCCN(Cc3ccccc3)C1=O)C2 (centres unmarked) [Compound I-176, 1′-benzyl-N-hydroxy-2′-oxo-3,4-dihydro-1H-spiro[naphthalene-2,3′-piperidine]-6-carboxamide] | ≥ 7.00
COc1cccc(CN2CC[C@]3(CCc4cc(C(=O)NO)ccc4C3)C2=O)c1 [Compound I-51, (R)-N-hydroxy-1′-(3-methoxybenzyl)-2′-oxo-3,4-dihydro-1H-spiro[naphthalene-2,3′-pyrrolidine]-6-carboxamide] | ≥ 7.00
O=C(NO)c1ccc2c(c1)CC[C@]1(CC(=O)N(c3ccccn3)C1)C2 [Compound I-229, (R)-N-hydroxy-5′-oxo-1′-(pyridin-2-yl)-3,4-dihydro-1H-spiro[naphthalene-2,3′-pyrrolidine]-6-carboxamide] | ≥ 7.00
O=C(NO)c1ccc2c(c1)CC[C@@]1(CCCN(C3CCC3)C1=O)C2 (single isomer, unassigned) [Compound I-197] | ≥ 7.00
O=C(NO)c1ccc2c(c1)CC[C@]1(CCN(Cc3cccc(F)c3)C1=O)C2 [Compound I-53, (R)-1′-(3-fluorobenzyl)-N-hydroxy-2′-oxo-3,4-dihydro-1H-spiro[naphthalene-2,3′-pyrrolidine]-6-carboxamide] | ≥ 7.00
O=C(NO)c1ccc2c(c1)CC[C@]1(CCN(Cc3cnc(O)s3)C1=O)C2 [Compound I-31, (R)-N-hydroxy-1′-((2-hydroxythiazol-5-yl)methyl)-2′-oxo-3,4-dihydro-1H-spiro[naphthalene-2,3′-pyrrolidine]-6-carboxamide] | ≥ 7.00
COc1ccc(F)c(N2CC[C@@]3(CCc4cc(C(=O)NO)ccc4C3)C2=O)c1 [Compound I-147, (2S)-1′-(2-fluoro-5-methoxyphenyl)-N-hydroxy-2′-oxo-3,4-dihydro-1H-spiro[naphthalene-2,3′-pyrrolidine]-6-carboxamide] | ≥ 7.00
O=C(NO)c1ccc2c(c1)CC[C@@]1(CCN(C3CCC3)C1=O)C2 (single isomer, unassigned) [Compound I-172] | ≥ 7.00
O=C(NO)c1ccc2c(c1)CCC1(CCN(CC3CCOCC3)C1=O)O2 (centres unmarked) [Compound I-234, N-hydroxy-2′-oxo-1′-((tetrahydro-2H-pyran-4-yl)methyl)spiro[chromane-2,3′-pyrrolidine]-6-carboxamide] | < 6.30
CC(C)CN1CC2(CCc3cc(C(=O)NO)ccc3C2)CC1=O (single isomer, unassigned) [Compound I-207] | ≥ 7.00
O=C(NO)c1ccc2c(c1)CCC1(CCCN(CC3COC3)C1=O)C2 (single isomer, unassigned) [Compound I-196] | ≥ 7.00
CC(C)N1CC2(CCc3cc(C(=O)NO)ccc3C2)CC1=O (single isomer, unassigned) [Compound I-213] | ≥ 7.00
CC(C)CN1CC[C@]2(CCc3cc(C(=O)NO)ccc3C2)C1=O [Compound I-159, (R)-N-hydroxy-1′-isobutyl-2′-oxo-3,4-dihydro-1H-spiro[naphthalene-2,3′-pyrrolidine]-6-carboxamide] | ≥ 7.00
CN1CC[C@@]2(CCc3cc(C(=O)NO)ccc3C2)C1=O [Compound I-105, (S)-N-hydroxy-1′-methyl-2′-oxo-3,4-dihydro-1H-spiro[naphthalene-2,3′-pyrrolidine]-6-carboxamide] | ≥ 7.00
CCN1CC[C@]2(CCc3cc(C(=O)NO)ccc3C2)C1=O [Compound I-161, (R)-1′-ethyl-N-hydroxy-2′-oxo-3,4-dihydro-1H-spiro[naphthalene-2,3′-pyrrolidine]-6-carboxamide] | ≥ 7.00
CC(C)CN1CC[C@@]2(CCc3cc(C(=O)NO)ccc3C2)C1=O [Compound I-160, (S)-N-hydroxy-1′-isobutyl-2′-oxo-3,4-dihydro-1H-spiro[naphthalene-2,3′-pyrrolidine]-6-carboxamide] | 6.30 to 7.00
O=C(NO)c1ccc2c(c1)CC[C@@]1(CCN(Cc3ccccc3C(F)(F)F)C1=O)C2 [Compound I-67, (S)-N-hydroxy-2′-oxo-1′-(2-(trifluoromethyl)benzyl)-3,4-dihydro-1H-spiro[naphthalene-2,3′-pyrrolidine]-6-carboxamide] | 6.30 to 7.00
O=C(NO)c1ccc2c(c1)CC[C@]1(CCN(Cc3ccc4nonc4c3)C1=O)C2 [Compound I-42, (R)-1′-(benzo[c][1,2,5]oxadiazol-5-ylmethyl)-N-hydroxy-2′-oxo-3,4-dihydro-1H-spiro[naphthalene-2,3′-pyrrolidine]-6-carboxamide] | ≥ 7.00
O=C(NO)c1ccc2c(c1)CC[C@]1(CCN(Cc3cnc(Cl)s3)C1=O)C2 [Compound I-30, (R)-1′-((2-chlorothiazol-5-yl)methyl)-N-hydroxy-2′-oxo-3,4-dihydro-1H-spiro[naphthalene-2,3′-pyrrolidine]-6-carboxamide] | ≥ 7.00
COc1ccc(CN2CCC3(CCc4cc(C(=O)NO)ccc4O3)CC2)cc1 [II-1, N-hydroxy-1′-(4-methoxybenzyl)spiro[chromane-2,4′-piperidine]-6-carboxamide] | < 6.30
CN1C[C@@]2(CCc3cc(C(=O)NO)ccc3C2)CC1=O (single isomer, unassigned) [Compound I-201] | ≥ 7.00
COc1ccccc1N1CC[C@]2(CCc3cc(C(=O)NO)ccc3C2)C1=O [Compound I-111] | ≥ 7.00
COc1ccccc1CN1CC[C@@]2(CCc3cc(C(=O)NO)ccc3C2)C1=O [Compound I-72, (S)-N-hydroxy-1′-(2-methoxybenzyl)-2′-oxo-3,4-dihydro-1H-spiro[naphthalene-2,3′-pyrrolidine]-6-carboxamide] | ≥ 7.00
